Results on 3 compounds are retold here after ChEMBL document CHEMBL4834400 (J Med Chem, 2021).

Series [1] in a line: Drug concentration in Wistar Han rat plasma at 100 mg/kg, po measured at 6 hrs by HPLC-MS/MS.
Series [2] is described as follows: Drug concentration in Wistar Han rat plasma at 100 mg/kg, po measured at 0.37 hrs by HPLC-MS/MS.
A short description of series [3]: Drug concentration in Wistar Han rat brain at 100 mg/kg, po measured at 0.37 hrs by HPLC-MS/MS.
A short description of series [4]: Ratio of drug concentration in brain to plasma in Wistar Han rat at 100 mg/kg, po measured at 0.37 hrs by HPLC-MS/MS.
Series [5] is described as follows: Drug concentration in Wistar Han rat plasma at 100 mg/kg, po measured at 2 hrs by HPLC-MS/MS.
Series [6] can be described thus: Ratio of drug concentration in brain to plasma in Wistar Han rat at 100 mg/kg, po measured at 2 hrs by HPLC-MS/MS.
The nature of series [7]: Drug concentration in Wistar Han rat brain at 100 mg/kg, po measured at 2 hrs by HPLC-MS/MS.
Series [8] can be described thus: Drug concentration in Wistar Han rat brain at 100 mg/kg, po measured at 6 hrs by HPLC-MS/MS.
Series [9] is described as follows: Ratio of drug concentration in brain to plasma in Wistar Han rat at 100 mg/kg, po measured at 6 hrs by HPLC-MS/MS.
Series [10] in a line: Half life in Sprague-Dawley rat at 10 mg/kg, po. To be noted: in vivo.
Series [11] is described as follows: in vivo. To be noted: Sprague-Dawley, rat, po, 10 mg/kg.
Series [12] can be described thus: Clearance in Sprague-Dawley rat at 5 mg/kg, iv. Conditions: in vivo.
Series [13] can be described thus: Drug concentration in Sprague-Dawley rat at 5 mg/kg, iv measured at 0 hrs. To be noted: in vivo.
Series [14] in a line: Volume of distribution at steady state in Sprague-Dawley rat at 5 mg/kg, iv. Conditions: in vivo.
Series [15] in a line: Half life in Sprague-Dawley rat at 5 mg/kg, iv. To be noted: in vivo.
The nature of series [16]: in vivo. To be noted: Sprague-Dawley, rat, plasma, po, 10 mg/kg.
Series [17] is described as follows: in vivo. To be noted: Sprague-Dawley, rat, plasma, po, 10 mg/kg. The source holds these as a separate data set.

In the case of `CCC(=O)NCC[C@@H]1CCc2ccc3c(c21)CCO3` [RAMELTEON], the concentration at 6 h stood at 1.15 µg/mL in series [1] and 1190 ng/g in [8]. Besides, the results for the concentration at […] in series [2] and in [3] were 3.16 µg/mL and 2850 ng/g, respectively. In addition, the Kp (in general, the ratio of the level in a tissue or fluid to that in plasma or blood) at […] in [4] is 0.91. Also, the concentration at 2 h was determined as 3.45 µg/mL in [5] and 3030 ng/g in series [7]. In series [6], the Kp at 2 h turned out to be 0.86. Besides, the concentration ratio (Kp) at 6 h in [9] is 1.02.

In the case of `COc1ccc2[nH]cc(CCNC(C)=O)c2c1` [MELATONIN], the half-life (in general, the time needed for the level to fall by half in the phase considered) in series [10] was 31.8 min; in series [15], 19.8 min. In the series “in vivo [11]”, the bioavailability (commonly dose-corrected exposure relative to a reference, in per cent) came out at 53.5%. Further, the clearance (as a rule, the volume of plasma or blood freed of the substance per unit of time) in series [12] worked out at 2.11 L/h/kg. In series [13], this compound had a concentration at 0 h of 0.935 µg/mL. The Vd (as a rule, the apparent volume that relates the amount in the body to the concentration in plasma or blood) in series [14] amounted to 1.05 L/kg. In addition, the highest level in “in vivo [16]” (Cmax at 24 h) was 2.79 µg/mL. Also, in the series “in vivo [17]”, the AUC(0-inf) (as a rule, the area under the concentration-time curve extrapolated to infinity) is 2.49 µg·h/mL.

Take `COc1ccc2cccc(CCNC(C)=O)c2c1` [AGOMELATINE]: the figures for the concentration at 6 h in series [1] and in series [8] were 0.45 µg/mL and 1210 ng/g, respectively. Besides, the concentration at […] in series [2] came out at 4.2 µg/mL; in series [3], 13800 ng/g. The Kp at […] in series [4] came to 3.19. Further, the concentration at 2 h amounted to 1.23 µg/mL in [5] and 3200 ng/g in series [7]. Moreover, the concentration ratio (Kp) at 2 h in [6] worked out at 2.73. For the same compound, the Kp at 6 h in series [9] came out at 2.73.
